Source: patent publication US6914045B2, “Glycopeptide antibiotics” (Wyeth Holdings Corporation, priority 2001, dated 2005)

Columns and labels:
Assay in all cases: in vitro antibacterial evaluation, MIC by broth dilution
Assay type in all cases: cell-based
[1] = test system: Staphylococcus sp.; conditions: broth dilution, 18 hours at 35° C.
Protocol: (§1) Methods for in vitro Antibacterial Evaluation (Table 1)
(§2) The minimum inhibitory concentration (MIC), the lowest concentration of the antibiotic which inhibits growth of the test organism, is determined by the broth dilution method using Muller-Hinton II […] (Baltimore Biological Laboratories) following the recommendations of the National Committee for Clinical Laboratory Standards [Methods for dilution antimicrobial susceptibility tests for bacteria that grow aerobically, approved standard M7-A2, National Committee for Clinical Laboratory Standards, Villanova, Pa.].
(§3) An inoculum level of 5×10^5 CFU/mL, and a range of antibiotic concentrations (64-0.06 μg/mL) is used. […] The test organisms include a spectrum of Gram-positive bacteria comprised of Staphylococcus sp., Streptococcus sp. and Enterococcus sp. These organisms include recent clinical isolates that are resistant to methicillin, penicillin and/or vancomycin.

[2] = test system: Streptococcus sp.; conditions: broth dilution, 18 hours at 35° C.
Protocol: as §1, §2, §3

[3] = test system: Enterococcus sp.; conditions: broth dilution, 18 hours at 35° C.
Protocol: as §1, §2, §3

[4] = test system: Escherichia coli; conditions: 18 hours at 35° C.
Method in brief: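 Broth dilution MIC per NCCLS M7-A2 in Mueller-Hinton II medium, inoculum 5×10^5 CFU/mL, antibiotic range 64-0.06 μg/mL. MIC taken as lowest concentration inhibiting growth.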

CC(c1ccccc1)C1NC(=O)CNC(=O)C(CO)NC(=O)C(C(O)C2CN(Cc3ccccc3)C(=NCc3ccccc3)N2C2OC(CO)C(O)C(O)C2O)NC(=O)C(C(O)C2CN(Cc3ccccc3)C(=NCc3ccccc3)N2Cc2ccccc2)NC(=O)C(Cc2ccc(OC3OC(CO)C(OC4OC5COC6(OC5C(O)C4O)C4CC5CC(C4)CC6C5)C(O)C3O)cc2)NC1=O (stereo not drawn) [Example 79, Cyclo[glycyl-β-methylphenylalanyl-O-[4-O-[4,6-O-(2-adamantylidene)hexotpyranosyl]hexopyranosyl]tyrosyl-3-[1,3-dibenzyl-2-(benzylimino)imidazolidin-4-yl]seryl-3-[1-benzyl-2-(benzylimino)-3-hexopyranosylimidazolidin-4-yl]serylseryl]]
32 mg/L: MIC Enterococcus faecalis (GC 4552) ([3]; Enterococcus faecalis (GC 4552)) | MIC Enterococcus faecium (GC 4556) ([3]; Enterococcus faecium (GC 4556)) | MIC Enterococcus faecalis (GC 3059) [3] | MIC Enterococcus faecalis (GC 4552) [3] | MIC Enterococcus faecium (GC 4556) [3] | MIC Enterococcus faecalis (GC 3059) ([3]; strain GC 3059)
4 mg/L: MIC Staphylococcus aureus (ATCC 29213) ([1]; strain ATCC 29213) | MIC Staphylococcus aureus (GC 3051) ([1]; strain GC 3051) | MIC Staphylococcus aureus (GC 3053) ([1]; strain GC 3053) | MIC Staphylococcus aureus (GC 4541) ([1]; strain GC 4541) | MIC Staphylococcus aureus (GC 4542) ([1]; strain GC 4542) | MIC Staphylococcus aureus-SMITH (GC 4543) ([1]; strain GC 4543) | MIC Staphylococcus aureus (GC 4545) ([1]; strain GC 4545) | MIC Staphylococcus haemolyticus (GC 4546) ([1]; strain GC 4546) | MIC Coagulase Negative Staphylococcus (GC 4547) ([1]; strain GC 4547) | MIC Coagulase Negative Staphylococcus (GC 4548) ([1]; strain GC 4548) | MIC Coagulase Negative Staphylococcus (GC 4551) ([1]; strain GC 4551) | MIC Coagulase Negative Staphylococcus (GC 6257) ([1]; strain GC 6257) | MIC Streptococcus agalactiae (GC 4564) [2] | MIC Streptococcus pneumoniae (ATCC 6301) [2] | MIC Streptococcus pyogenes (GC 4563) [2] | MIC Streptococcus pneumoniae (ATCC 6301) ([2]; strain ATCC 6301) | MIC Streptococcus pyogenes (GC 4563) ([2]; strain GC 4563) | MIC Streptococcus agalactiae (GC 4564) ([2]; strain GC 4564) | MIC Enterococcus faecalis (GC 4553) ([3]; Enterococcus faecalis (GC 4553)) | MIC Enterococcus faecium (GC 4557) ([3]; Enterococcus faecium (GC 4557)) | MIC Enterococcus faecalis (GC 4553) [3] | MIC Enterococcus faecium (GC 4557) [3]
2 mg/L: MIC Coagulase Negative Staphylococcus (GC 4549) ([1]; strain GC 4549) | MIC Enterococcus avium (GC 4558) ([3]; Enterococcus avium (GC 4558)) | MIC Enterococcus avium (GC 4558) [3] | MIC Escherichia coli (GC 4560) [4]
8 mg/L: MIC Staphylococcus aureus (GC 1131) ([1]; strain GC 1131) | MIC Staphylococcus aureus (GC 4544) ([1]; strain GC 4544) | MIC Streptococcus pneumoniae (GC 1894) [2] | MIC Streptococcus pneumoniae (GC 4565) [2] | MIC Streptococcus pneumoniae (GC 1894) ([2]; strain GC 1894) | MIC Streptococcus pneumoniae (GC 4565) ([2]; strain GC 4565) | MIC Enterococcus faecalis (ATCC 29212) ([3]; Enterococcus faecalis (ATCC 29212)) | MIC Enterococcus faecalis (GC 6189) ([3]; Enterococcus faecalis (GC 6189)) | MIC Enterococcus faecium (GC 2243) ([3]; Enterococcus faecium (GC 2243)) | MIC Enterococcus faecalis (ATCC 29212) [3] | MIC Enterococcus faecalis (GC 2691) [3] | MIC Enterococcus faecalis (GC 6189) [3] | MIC Enterococcus faecium (GC 2243) [3] | MIC Enterococcus faecalis (GC 2691) ([3]; strain GC 2691)
>128 mg/L: MIC Escherichia coli (ATCC 25922) [4] | MIC Escherichia coli (GC 4559) [4]
16 mg/L: MIC Enterococcus faecalis (GC 4554) ([3]; Enterococcus faecalis (GC 4554)) | MIC Enterococcus faecalis (GC 2242) [3] | MIC Enterococcus faecalis (GC 4554) [3] | MIC Enterococcus faecalis (GC 2242) ([3]; strain GC 2242)
